Measured values: ChEMBL document CHEMBL1201862, “PubChem BioAssay data set” (2004)
Activity calls are given as the source filed them.

Experiments:
Beta-lactamase [1] = biological target: T1, Beta-lactamase (Pseudomonas aeruginosa, UniProt Q79MP6); experiment: IMP-1 metallo-beta-lactamase inhibitors, dose response, selectivity assay for VIM-2 inhibitor project, biochemical, epi-absorbance (AID 1920)
Beta-lactamase [2] = biological target: Beta-lactamase (Salmonella choleraesuis (strain SC-B67), UniProt Q5J463); experiment: Epi-absorbance-based counterscreen for selective VIM-2 inhibitors: dose response biochemical high throughput screening assay to identify inhibitors of TEM-1 serine-beta-lactamase.
Chain of Beta-lactamase (Salmonella choleraesuis (strain SC-B67), UniProt Q5J463) (Q5J463 whole entry): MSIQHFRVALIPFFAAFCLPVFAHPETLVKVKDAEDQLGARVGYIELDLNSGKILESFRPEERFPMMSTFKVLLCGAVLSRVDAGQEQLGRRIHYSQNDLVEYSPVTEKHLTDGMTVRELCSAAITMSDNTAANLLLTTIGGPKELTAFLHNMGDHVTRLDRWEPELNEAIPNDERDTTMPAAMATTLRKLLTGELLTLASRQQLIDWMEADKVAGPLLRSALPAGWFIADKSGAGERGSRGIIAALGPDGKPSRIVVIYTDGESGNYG

Beta-lactamase [3] = biological target: T1, Beta-lactamase; experiment: […] counterscreen for selective VIM-2 inhibitors: dose response biochemical high throughput screening assay to identify inhibitors of IMP-1 metallo-beta-lactamase.
[4] = biological target: T2, Beta-2 adrenergic receptor (Homo sapiens, UniProt P07550); experiment: beta2AR agonists driving receptor internalization, dose response, cell-based, FAP fluorogen, flow cytometry, cherry pick 1 (AID 588763); format: functional
T2 sequence (P07550 whole entry): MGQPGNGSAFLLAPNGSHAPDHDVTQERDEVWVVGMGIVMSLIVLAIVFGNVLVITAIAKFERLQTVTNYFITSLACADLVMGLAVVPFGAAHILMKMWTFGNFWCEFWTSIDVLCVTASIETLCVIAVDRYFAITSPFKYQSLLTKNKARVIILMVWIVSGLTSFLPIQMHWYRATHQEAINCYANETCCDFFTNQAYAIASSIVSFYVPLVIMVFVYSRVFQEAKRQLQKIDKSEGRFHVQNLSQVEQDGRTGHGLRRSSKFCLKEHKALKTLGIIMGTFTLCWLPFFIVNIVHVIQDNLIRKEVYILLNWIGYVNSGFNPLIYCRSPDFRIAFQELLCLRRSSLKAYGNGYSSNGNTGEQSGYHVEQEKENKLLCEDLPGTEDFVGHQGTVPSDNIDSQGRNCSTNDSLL

cells [5] = format: functional, cell-based
cells [6] = format: functional, cell-based; remark: listed apart in the source
[7] = biological target: T2, Beta-2 adrenergic receptor; experiment: Dose response for HTS for Beta-2AR agonists via FAP method from Powderset1.; format: functional
[8] = lymphoblastoid cell cytotoxicity, dose response, cytotoxicity control, plate reader, dry powder, set 2 (AID 624367); format: functional
[9] = NIH:OVCAR-3 ovarian cancer cell cytotoxicity, dose response, PAX8 inhibitor project, plate reader, dry powder samples (AID 743044); format: functional, cell-based
[10] = IOSE-T80 ovarian epithelial cell cytotoxicity, dose response, cytotoxicity control for PAX8 inhibitor project, plate reader, dry powder samples (AID 743045); format: functional, cell-based
Paired box protein Pax-8 = Paired box protein Pax-8 (Homo sapiens, UniProt Q06710); experiment: inhibitors of PAX8-driven TPO luciferase reporter, dose response, RMG-I cells, cherry-pick (AID 687027); format: functional, cell-based;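 further: luciferase reporter driven by Pax8 target thyroperoxidase promoter measured by SteadyGlo luminescence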
Chain of Paired box protein Pax-8 (Q06710 whole entry): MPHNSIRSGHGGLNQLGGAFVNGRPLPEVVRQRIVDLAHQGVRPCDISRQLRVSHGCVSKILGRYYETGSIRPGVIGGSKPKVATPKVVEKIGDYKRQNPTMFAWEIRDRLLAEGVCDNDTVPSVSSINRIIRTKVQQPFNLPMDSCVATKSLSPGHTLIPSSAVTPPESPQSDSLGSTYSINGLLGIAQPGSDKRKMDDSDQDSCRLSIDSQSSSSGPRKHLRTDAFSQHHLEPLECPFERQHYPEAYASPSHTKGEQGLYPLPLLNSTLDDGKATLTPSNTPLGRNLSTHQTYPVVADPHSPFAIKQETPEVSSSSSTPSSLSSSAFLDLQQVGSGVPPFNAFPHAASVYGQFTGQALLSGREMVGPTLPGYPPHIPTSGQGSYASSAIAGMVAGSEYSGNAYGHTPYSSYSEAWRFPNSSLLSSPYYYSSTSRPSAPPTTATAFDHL

[11] = A2780 ovarian cancer cell cytotoxicity, dose response, cytotoxicity control, plate reader, dry powder samples (AID 743046); format: functional, cell-based
[12] = IGROV1 ovarian cancer cell cytotoxicity, dose response, PAX8 inhibitor project, plate reader, dry powder samples (AID 743043); format: functional, cell-based; conditions: IGROV-1
[13] = cytotoxicity in OVCAR8 ovarian cancer cells, dose response, PAX8 project, cell-based, plate reader, dry powder samples (AID 743197); format: functional; conditions: OVCAR-8
[14] = biological target: Sphingosine 1-phosphate receptor 1 (Homo sapiens, UniProt P21453); format: functional;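 further: Tango beta-arrestin reporter U2OS cells stimulated with S1P near its EC80; inhibitor potency meaning antagonism of receptor activation by the natural agonist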
Chain of Sphingosine 1-phosphate receptor 1 (P21453 whole entry): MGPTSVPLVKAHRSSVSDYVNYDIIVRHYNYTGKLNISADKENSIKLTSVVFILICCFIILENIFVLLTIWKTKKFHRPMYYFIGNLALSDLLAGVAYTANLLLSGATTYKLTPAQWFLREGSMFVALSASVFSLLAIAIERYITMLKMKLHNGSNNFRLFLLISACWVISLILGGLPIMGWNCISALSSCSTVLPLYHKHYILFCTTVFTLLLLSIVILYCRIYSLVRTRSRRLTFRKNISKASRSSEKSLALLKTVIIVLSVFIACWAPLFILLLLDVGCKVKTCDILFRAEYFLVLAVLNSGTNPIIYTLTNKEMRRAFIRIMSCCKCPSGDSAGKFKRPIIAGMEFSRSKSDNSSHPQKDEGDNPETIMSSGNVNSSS

[15] = biological target: T3, Serine/threonine-protein phosphatase (Candida dubliniensis (strain CD36 / CBS 7987 / NCPF 3949 / NRRLY-17841) (Yeast), UniProt B9W6M3); experiment: Fluorescence Cell-Based Secondary Assay to Identify Inhibitors of Calcineurin. [Related pubchem assays (depositor defined):AID1979, AID2007]; format: functional
T3 sequence (B9W6M3 whole entry): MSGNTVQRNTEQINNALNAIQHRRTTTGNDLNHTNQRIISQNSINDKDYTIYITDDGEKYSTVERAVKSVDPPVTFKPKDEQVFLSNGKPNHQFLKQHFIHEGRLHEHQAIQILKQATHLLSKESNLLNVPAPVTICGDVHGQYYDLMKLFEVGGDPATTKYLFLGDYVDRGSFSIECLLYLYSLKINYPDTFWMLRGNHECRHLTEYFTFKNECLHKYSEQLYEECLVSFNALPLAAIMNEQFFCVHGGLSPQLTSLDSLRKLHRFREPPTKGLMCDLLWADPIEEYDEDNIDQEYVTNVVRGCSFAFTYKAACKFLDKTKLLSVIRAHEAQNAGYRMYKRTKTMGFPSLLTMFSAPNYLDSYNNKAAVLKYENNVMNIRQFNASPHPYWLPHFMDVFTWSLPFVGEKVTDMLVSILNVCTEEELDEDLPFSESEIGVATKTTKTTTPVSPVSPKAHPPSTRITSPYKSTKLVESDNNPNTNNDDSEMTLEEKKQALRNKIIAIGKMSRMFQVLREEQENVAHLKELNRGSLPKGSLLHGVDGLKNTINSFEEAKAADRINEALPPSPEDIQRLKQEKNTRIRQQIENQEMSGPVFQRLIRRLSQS

[16] = biological target: ATP-dependent molecular chaperone HSP82 (Candida albicans (strain WO-1) (Yeast), UniProt C4YTQ8); experiment: loss of DOC-induced GRE-beta-galactosidase reporter signal, dose response, Hsp90 inhibitor project, S. cerevisiae, luminescence (AID 2400); format: functional, cell-based;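 further: beta-galactosidase luminescence from glucocorticoid response element reporter as proxy for Hsp90 function; inhibitor potency where signal loss means Hsp90 inhibition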
Chain of ATP-dependent molecular chaperone HSP82 (C4YTQ8 whole entry): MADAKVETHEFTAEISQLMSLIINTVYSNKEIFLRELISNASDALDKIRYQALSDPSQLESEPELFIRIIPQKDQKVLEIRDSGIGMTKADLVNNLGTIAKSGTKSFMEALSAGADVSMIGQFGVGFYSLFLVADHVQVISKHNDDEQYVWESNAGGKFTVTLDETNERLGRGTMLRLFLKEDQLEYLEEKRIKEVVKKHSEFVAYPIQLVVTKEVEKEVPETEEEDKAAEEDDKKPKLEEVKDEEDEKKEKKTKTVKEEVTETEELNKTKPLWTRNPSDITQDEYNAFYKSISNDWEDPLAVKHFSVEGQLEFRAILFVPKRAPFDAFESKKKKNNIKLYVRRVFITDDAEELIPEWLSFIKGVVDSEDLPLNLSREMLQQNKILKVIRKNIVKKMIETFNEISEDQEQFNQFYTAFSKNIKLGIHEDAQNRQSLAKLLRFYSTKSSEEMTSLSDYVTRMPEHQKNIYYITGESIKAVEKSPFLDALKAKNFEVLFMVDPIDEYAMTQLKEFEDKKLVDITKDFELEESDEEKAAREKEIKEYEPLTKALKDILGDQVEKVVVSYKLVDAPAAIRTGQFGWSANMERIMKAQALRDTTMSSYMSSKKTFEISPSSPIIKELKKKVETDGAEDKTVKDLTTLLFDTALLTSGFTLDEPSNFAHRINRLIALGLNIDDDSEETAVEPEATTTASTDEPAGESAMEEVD

[17] = C. albicans growth with fluconazole, confirmation, fluorescence, retest (AID 2467); format: functional, cell-based
[18] = Fluorescence-based cell-based high throughput dose response assay for inhibitors of the interaction of nucleotide-binding oligomerization domain containing 2 (NOD2) and the receptor-interacting serine-threonine kinase 2 (RIPK2).; format: functional; conditions: Homo sapiens
[19] = microbe, parasite or virus in culture; format: functional; conditions: Mycobacterium tuberculosis
[20] = biological target: T4, Sphingosine 1-phosphate receptor 4 (Homo sapiens, UniProt O95977); experiment: Fluorescence dose response cell-based high throughput screening assay for antagonists of the Sphingosine 1-Phosphate Receptor 4 (S1P4). [Related pubchem assays: 1524 (Confirmation in triplicates.), 1510 (Primary screen.)]; format: functional
T4 sequence (O95977 whole entry): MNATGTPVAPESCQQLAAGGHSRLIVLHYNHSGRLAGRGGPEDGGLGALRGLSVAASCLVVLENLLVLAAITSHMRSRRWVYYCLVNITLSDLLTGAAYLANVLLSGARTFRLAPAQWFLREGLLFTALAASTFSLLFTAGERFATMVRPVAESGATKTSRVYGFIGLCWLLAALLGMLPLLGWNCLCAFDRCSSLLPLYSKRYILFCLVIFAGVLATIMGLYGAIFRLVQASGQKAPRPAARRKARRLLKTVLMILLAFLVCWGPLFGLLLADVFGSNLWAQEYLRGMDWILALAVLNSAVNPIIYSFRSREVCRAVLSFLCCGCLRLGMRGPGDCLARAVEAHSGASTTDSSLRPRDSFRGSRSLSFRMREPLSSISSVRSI

[21] = biological target: Heat shock protein HSP 90-alpha (Homo sapiens, UniProt P07900); format: functional, organism-based
[22] = biological target: T3, Serine/threonine-protein phosphatase; experiment: calcineurin pathway inhibitors in yeast reporter, dose response, S. cerevisiae, CDRE-lacZ, luminescence, secondary (AID 2388); format: functional, cell-based;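 further: yeast reporter cells carrying a calcineurin-responsive lacZ construct stimulated with calcium chloride; luminescent beta-galactosidase reporter signal in whole cells rather than isolated phosphatase activity; potency for inhibition where a drop in reporter signal means calcineurin blockade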
[23] = NIH-3T3 fibroblast cytotoxicity, dose response, cytotoxicity control, cell-based, fluorescence, Alamar Blue, secondary assay (AID 2327); format: functional;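 further: NIH-3T3 mouse fibroblasts cultured with fluconazole at 8 µg/mL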
[24] = biological target: Neurotensin receptor type 1 (Homo sapiens, UniProt P30989); format: functional;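 further: Image-based confirmatory dose-response assay measuring agonist activity at NTR1; NTR1-expressing U2OS osteosarcoma cells imaged for beta-arrestin GFP spot formation; agonist potency where compounds increase beta-arrestin recruitment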
Chain of Neurotensin receptor type 1 (P30989 whole entry): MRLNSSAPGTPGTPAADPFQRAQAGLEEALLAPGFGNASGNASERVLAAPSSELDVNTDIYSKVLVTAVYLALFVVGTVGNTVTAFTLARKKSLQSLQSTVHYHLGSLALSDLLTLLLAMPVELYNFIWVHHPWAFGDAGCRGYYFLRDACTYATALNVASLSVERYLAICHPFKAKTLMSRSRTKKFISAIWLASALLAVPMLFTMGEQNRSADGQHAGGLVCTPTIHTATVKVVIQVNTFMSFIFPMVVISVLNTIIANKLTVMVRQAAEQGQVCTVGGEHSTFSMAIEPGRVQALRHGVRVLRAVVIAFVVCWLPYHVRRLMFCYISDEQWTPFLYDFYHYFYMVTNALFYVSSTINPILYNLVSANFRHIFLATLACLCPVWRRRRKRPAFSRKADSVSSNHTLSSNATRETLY

T1 sequence (Q79MP6 whole entry): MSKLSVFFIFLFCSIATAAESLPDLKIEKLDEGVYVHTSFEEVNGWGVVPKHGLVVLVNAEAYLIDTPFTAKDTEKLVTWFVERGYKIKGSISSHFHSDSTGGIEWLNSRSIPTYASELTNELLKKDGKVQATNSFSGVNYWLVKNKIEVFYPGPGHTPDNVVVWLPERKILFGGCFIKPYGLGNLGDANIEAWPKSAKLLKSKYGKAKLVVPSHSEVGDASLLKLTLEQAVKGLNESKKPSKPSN

In the case of `COCC(=O)Nc1nnc(SCC(=O)NCc2cccs2)s1`, the IC50 (Beta-lactamase [1]) is reported as > 59.6 µM (inactive), the IC50 (Beta-lactamase [2]) is reported as > 59.6 µM (inactive) and the IC50 (Beta-lactamase [3]) is reported as > 59.6 µM (inactive).

For `O=C(c1ccc(OC2CCN(Cc3ccc(F)cc3)CC2)cc1)N1CCCC1`, the EC50 [4] was 1.6 µM (active), the EC50 (cells [5]) was > 350 µM (not active) and the EC50 (cells [6]) was > 350 µM (not active). The EC50 [7] was 5.28 µM (active).

With `O=C(C[C@@H]1C[C@H]2c3cc(NS(=O)(=O)c4ccc(F)cc4)ccc3O[C@H]2[C@@H](CO)O1)NCc1ccc(Oc2ccccc2)cc1` the AbsAC35 [8] was 42.5 µM, the AC50 [9] was 21.5 µM (active) and the AC50 [10] was 26.7 µM (active). The AC50 (Paired box protein Pax-8) was 7.32 µM (active), the AC50 [11] was 45.6 µM (active) and the AC50 [12] was 44.3 µM (active). For the same molecule, the AC50 [13] was 43.5 µM (active).

With `CCc1ccc2c(c1)/C(=C/C(=O)c1cccs1)C(=O)N2` the IC50 [14] was 20.9 µM (not active), the EC50 [15] was 5.99 µM (active) and the EC50 [16] was 1.25 µM (active). For the same molecule, the EC50 [17] was 6.49 µM (active), the IC50 [18] was 4.53 µM (active) and the CC50 [19] was 7.23 µM (active). The IC50 [20] was 1.46 µM (active), the AC50 [21] was 4.18 µM (active) and the EC50 [22] was > 180 µM (inactive). For the same molecule, the EC50 [23] was > 150 µM (inactive) and the EC50 [24] was 17.7 µM (active).
